Measured values as given in article PMC11992225, “Antibacterial compounds against non-growing and intracellular bacteria” (npj Antimicrobials and Resistance, 2025).

Assays:
non-growing UPEC CFT073 = experiment: Dose-dependent killing analysis (CFU spot-plating) of stationary-phase UPEC; format: cell-based, Escherichia coli; conditions: for bactericidal activity against non-growing UPEC (CFU counting): 24 h treatment of stationary phase culture
Protocol: To differentiate between these scenarios, we used CFU counting by agar plating to assess the bactericidal effect on non-growing bacteria. […] Conversely, if no significant reduction in CFU is observed, the regrowth delay is due to PAE without killing. […] Fluoroquinolones are known to cause PAE after treatment of growing bacterial cultures.
(§1) For survival analysis, bacteria were cultivated as described for the dose–response dilution-regrowth assay. Assays with UPEC were conducted at the CBCS screening facility using 96-well plates with a 200 μl sample volume, and compounds were dispensed using the Echo® (Labcyte) system. P. aeruginosa and S. aureus samples were treated according to the protocol used for the dilution-regrowth experiments. Treated samples were serially diluted 10-fold in PBS, and 10 μl drops were spot-plated onto rectangular LB agar plates using either a Beckman NXP robot (for UPEC) or an Integra VIAFLO96 electronic pipette (for P. aeruginosa and S. aureus). The LB agar plates were incubated overnight at 37 °C and scanned. Colonies were counted at the spots of the lowest dilution where individual colonies could be accurately distinguished. Each colony was manually marked on a separate image layer using the GNU Image Manipulation Program, and counted using NIST’s Integrated Colony Enumerator (NICE 1.4) software. The experiments were performed in three biological replicates.

[1] = test system: non-growing P. aeruginosa DSM1117; experiment: Dose-dependent killing analysis (CFU spot-plating) of stationary-phase P. aeruginosa; format: cell-based, Pseudomonas aeruginosa; conditions: for reduction of bacterial counts, stationary phase P. aeruginosa: at 0.5 µM
Protocol: The cultures were grown and treated for 24 h in 1:4 CA-MHB (pH 7.4).
as §1

[2] = at 2.5 µM, 1:4 CA-MHB pH 7.4, 24 h treatment
[3] = E. coli in 1:4 CA-MHB (pH 7.4), 0.25 μM
[4] = E. coli in 1:4 CA-MHB (pH 7.4), 0.5 μM
[5] = E. coli in 1:4 CA-MHB (pH 7.4), 1 μM
[6] = E. coli in 1:4 CA-MHB (pH 7.4), 2.5 μM
[7] = E. coli in 1:4 CA-MHB (pH 7.4), 5 μM
[8] = E. coli in 1:4 CA-MHB (pH 7.4), 10 μM
[9] = E. coli in LPM (pH 5.5), 0.25 μM
[10] = E. coli in LPM (pH 5.5), 0.5 μM
[11] = E. coli in LPM (pH 5.5), 2.5 μM

C=C[C@]1(C)C[C@@H](OC(=O)CSC(C)(C)CNC(=O)[C@H](N)C(C)C)[C@]2(C)[C@H](C)CC[C@]3(CCC(=O)[C@H]32)[C@@H](C)[C@@H]1O [Valnemulin]
bactericidal activity against non-growing UPEC (CFU counting) (non-growing UPEC CFT073): not bactericidal

CC[C@H]1OC(=O)[C@@](C)(F)C(=O)[C@H](C)[C@@H](O[C@@H]2O[C@H](C)C[C@H](N(C)C)[C@H]2O)[C@](C)(OC)C[C@@H](C)C(=O)[C@H](C)[C@H]2N(CCCCn3cc(-c4cccc(N)c4)nn3)C(=O)O[C@]12C [Solithromycin]
bactericidal activity against non-growing UPEC (CFU counting) (non-growing UPEC CFT073): did not kill | reduction of bacterial counts, stationary phase P. aeruginosa ([1]; 24 h treatment): more than four | reduction of bacterial counts, non-growing P. aeruginosa [1, 2]: more than four | killing of non-growing P. aeruginosa ([1]; at 2.5 µM, 24 h treatment): > 4 log10 | reduction of bacterial counts, non-growing P. aeruginosa ([1]; at 10 µM, 24 h treatment): more than four

CS[C@H]1SC[C@H]2C(=O)N(C)[C@@H](C(C)C)C(=O)OC[C@@H](NC(=O)c3cnc4ccccc4n3)C(=O)N[C@@H](C)C(=O)N(C)[C@@H]1C(=O)N(C)[C@@H](C(C)C)C(=O)OC[C@@H](NC(=O)c1cnc3ccccc3n1)C(=O)N[C@@H](C)C(=O)N2C [Echinomycin]
Log10(CFU/ml), Replicate #1 (non-growing UPEC CFT073; [3]): 9.431 Log10(CFU/ml) | Log10(CFU/ml), Replicate #2 (non-growing UPEC CFT073; [3]): 8.699 Log10(CFU/ml) | Log10(CFU/ml), Replicate #3 (non-growing UPEC CFT073; [3]): 8.505 Log10(CFU/ml) | Δlog10(CFU/ml) (non-growing UPEC CFT073; E. coli in 1:4 CA-MHB (pH 7.4), 0.25 μM, average killing vs before treatment (8.977)): 0.099 log10(CFU/ml) | Log10(CFU/ml), Replicate #1 (non-growing UPEC CFT073; [4]): 9.415 Log10(CFU/ml) | Log10(CFU/ml), Replicate #2 (non-growing UPEC CFT073; [4]): 9.079 Log10(CFU/ml) | Log10(CFU/ml), Replicate #3 (non-growing UPEC CFT073; [4]): 8.447 Log10(CFU/ml) | Δlog10(CFU/ml) (non-growing UPEC CFT073; E. coli in 1:4 CA-MHB (pH 7.4), 0.5 μM, average killing vs before treatment (8.977)): -0.003 log10(CFU/ml) | Log10(CFU/ml), Replicate #1 (non-growing UPEC CFT073; [5]): 9.380 Log10(CFU/ml) | Log10(CFU/ml), Replicate #2 (non-growing UPEC CFT073; [5]): 9.114 Log10(CFU/ml) | Log10(CFU/ml), Replicate #3 (non-growing UPEC CFT073; [5]): 8.398 Log10(CFU/ml) | Δlog10(CFU/ml) (non-growing UPEC CFT073; E. coli in 1:4 CA-MHB (pH 7.4), 1 μM, average killing vs before treatment (8.977)): 0.013 log10(CFU/ml) | Log10(CFU/ml), Replicate #1 (non-growing UPEC CFT073; [6]): 9.398 Log10(CFU/ml) | Log10(CFU/ml), Replicate #2 (non-growing UPEC CFT073; [6]): 8.699 Log10(CFU/ml) | Log10(CFU/ml), Replicate #3 (non-growing UPEC CFT073; [6]): 8.398 Log10(CFU/ml) | Δlog10(CFU/ml) (non-growing UPEC CFT073; E. coli in 1:4 CA-MHB (pH 7.4), 2.5 μM, average killing vs before treatment (8.977)): 0.146 log10(CFU/ml) | Log10(CFU/ml), Replicate #1 (non-growing UPEC CFT073; [7]): 9.362 Log10(CFU/ml) | Log10(CFU/ml), Replicate #2 (non-growing UPEC CFT073; [7]): 8.477 Log10(CFU/ml) | Log10(CFU/ml), Replicate #3 (non-growing UPEC CFT073; [7]): 8.477 Log10(CFU/ml) | Δlog10(CFU/ml) (non-growing UPEC CFT073; E. coli in 1:4 CA-MHB (pH 7.4), 5 μM, average killing vs before treatment (8.977)): 0.205 log10(CFU/ml) | Log10(CFU/ml), Replicate #1 (non-growing UPEC CFT073; [8]): 8.342 Log10(CFU/ml) | Log10(CFU/ml), Replicate #2 (non-growing UPEC CFT073; [8]): 8.079 Log10(CFU/ml) | Log10(CFU/ml), Replicate #3 (non-growing UPEC CFT073; [8]): 8.342 Log10(CFU/ml) | Δlog10(CFU/ml) (non-growing UPEC CFT073; E. coli in 1:4 CA-MHB (pH 7.4), 10 μM, average killing vs before treatment (8.977)): 0.723 log10(CFU/ml) | Log10(CFU/ml), Replicate #1 (non-growing UPEC CFT073; [9]): 6.778 Log10(CFU/ml) | Log10(CFU/ml), Replicate #2 (non-growing UPEC CFT073; [9]): 7.114 Log10(CFU/ml) | Log10(CFU/ml), Replicate #3 (non-growing UPEC CFT073; [9]): 8.398 Log10(CFU/ml) | Δlog10(CFU/ml) (non-growing UPEC CFT073; E. coli in LPM (pH 5.5), 0.25 μM, average killing vs before treatment (7.350)): -0.080 log10(CFU/ml) | Log10(CFU/ml), Replicate #1 (non-growing UPEC CFT073; [10]): 6.954 Log10(CFU/ml) | Log10(CFU/ml), Replicate #2 (non-growing UPEC CFT073; [10]): 6.954 Log10(CFU/ml) | Log10(CFU/ml), Replicate #3 (non-growing UPEC CFT073; [10]): 8.000 Log10(CFU/ml) | Δlog10(CFU/ml) (non-growing UPEC CFT073; E. coli in LPM (pH 5.5), 0.5 μM, average killing vs before treatment (7.350)): 0.048 log10(CFU/ml) | Log10(CFU/ml), Replicate #1 (non-growing UPEC CFT073; E. coli in LPM (pH 5.5), 1 μM): 6.954 Log10(CFU/ml) | Log10(CFU/ml), Replicate #2 (non-growing UPEC CFT073; E. coli in LPM (pH 5.5), 1 μM): 7.255 Log10(CFU/ml) | Log10(CFU/ml), Replicate #3 (non-growing UPEC CFT073; E. coli in LPM (pH 5.5), 1 μM): 8.301 Log10(CFU/ml) | Δlog10(CFU/ml) (non-growing UPEC CFT073; E. coli in LPM (pH 5.5), 1 μM, average killing vs before treatment (7.350)): -0.153 log10(CFU/ml) | Log10(CFU/ml), Replicate #1 (non-growing UPEC CFT073; [11]): 6.954 Log10(CFU/ml) | Log10(CFU/ml), Replicate #2 (non-growing UPEC CFT073; [11]): 6.845 Log10(CFU/ml) | Log10(CFU/ml), Replicate #3 (non-growing UPEC CFT073; [11]): 8.230 Log10(CFU/ml) | Δlog10(CFU/ml) (non-growing UPEC CFT073; E. coli in LPM (pH 5.5), 2.5 μM, average killing vs before treatment (7.350)): 0.007 log10(CFU/ml) | Log10(CFU/ml), Replicate #1 (non-growing UPEC CFT073; E. coli in LPM (pH 5.5), 5 μM): 6.778 Log10(CFU/ml) | Log10(CFU/ml), Replicate #2 (non-growing UPEC CFT073; E. coli in LPM (pH 5.5), 5 μM): 7.342 Log10(CFU/ml) | Log10(CFU/ml), Replicate #3 (non-growing UPEC CFT073; E. coli in LPM (pH 5.5), 5 μM): 8.204 Log10(CFU/ml) | Δlog10(CFU/ml) (non-growing UPEC CFT073; E. coli in LPM (pH 5.5), 5 μM, average killing vs before treatment (7.350)): -0.091 log10(CFU/ml) | Log10(CFU/ml), Replicate #1 (non-growing UPEC CFT073; E. coli in LPM (pH 5.5), 10 μM): 6.279 Log10(CFU/ml) | Log10(CFU/ml), Replicate #2 (non-growing UPEC CFT073; E. coli in LPM (pH 5.5), 10 μM): 6.362 Log10(CFU/ml) | Log10(CFU/ml), Replicate #3 (non-growing UPEC CFT073; E. coli in LPM (pH 5.5), 10 μM): 6.602 Log10(CFU/ml) | Δlog10(CFU/ml) (non-growing UPEC CFT073; E. coli in LPM (pH 5.5), 10 μM, average killing vs before treatment (7.350)): 0.936 log10(CFU/ml)

O=C(O)c1cn(C2CC2)c2cc(N3CCNCC3)c(F)cc2c1=O [Ciprofloxacin]
reduction of bacterial counts, non-growing P. aeruginosa [1, 2]: more than four

CC1Sc2c(C(=O)O)c(=O)c3cc(F)c(N4CCNCC4)cc3n21 (stereo not drawn) [Ulifloxacin]
reduction of bacterial counts, stationary phase P. aeruginosa ([1]; 24 h treatment): more than four | reduction of bacterial counts, non-growing P. aeruginosa [1, 2]: more than four
